Laboratory results: PMC6000670, “Dihydropyridines Allosterically Modulate Hsp90 Providing a Novel Mechanism for Heat Shock Protein Co-induction and Neuroprotection” (Frontiers in Molecular Biosciences, 2018)
Like-named read-outs stand apart in the source and are kept apart here.

Columns and labels:
[1] = biological target: yeast Hsp90–AMPPNP complex (Saccharomyces cerevisiae, UniProt P02829); test: ITC binding to yeast Hsp90-AMPPNP complex
[2] = biological target: human Hsp90α N-terminal domain (Hsp90^9−236) (Homo sapiens, UniProt P07900); test: ITC binding to human Hsp90α N-terminal domain; details: isolated N-terminal domain of human Hsp90α
[3] = biological target: human Hsp72 (Homo sapiens, UniProt P0DMV8); test: ITC binding to human Hsp72; details: 1 mM LA1011 into 60 μM human Hsp72
[4] = biological target: T1, yeast Hsp90 N-terminal domain (Hsp90^1−220) (Saccharomyces cerevisiae, UniProt P02829); test: ITC binding to yeast Hsp90 N-terminal domain; details: isolated N-terminal domain of yeast Hsp90
T1 construct: Hsp90^1−220 (N-terminal domain); made in house
T1 sequence (P02829 1-220): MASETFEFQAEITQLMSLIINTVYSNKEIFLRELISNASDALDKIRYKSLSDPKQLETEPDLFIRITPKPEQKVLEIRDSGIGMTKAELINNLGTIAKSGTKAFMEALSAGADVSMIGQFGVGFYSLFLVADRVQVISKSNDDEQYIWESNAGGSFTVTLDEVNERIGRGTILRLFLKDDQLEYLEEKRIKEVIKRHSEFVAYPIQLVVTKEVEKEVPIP

[5] = biological target: T2, yeast Hsp90 (Saccharomyces cerevisiae, UniProt P02829); test: Citrate synthase aggregation assay
T2 sequence (P02829 whole entry): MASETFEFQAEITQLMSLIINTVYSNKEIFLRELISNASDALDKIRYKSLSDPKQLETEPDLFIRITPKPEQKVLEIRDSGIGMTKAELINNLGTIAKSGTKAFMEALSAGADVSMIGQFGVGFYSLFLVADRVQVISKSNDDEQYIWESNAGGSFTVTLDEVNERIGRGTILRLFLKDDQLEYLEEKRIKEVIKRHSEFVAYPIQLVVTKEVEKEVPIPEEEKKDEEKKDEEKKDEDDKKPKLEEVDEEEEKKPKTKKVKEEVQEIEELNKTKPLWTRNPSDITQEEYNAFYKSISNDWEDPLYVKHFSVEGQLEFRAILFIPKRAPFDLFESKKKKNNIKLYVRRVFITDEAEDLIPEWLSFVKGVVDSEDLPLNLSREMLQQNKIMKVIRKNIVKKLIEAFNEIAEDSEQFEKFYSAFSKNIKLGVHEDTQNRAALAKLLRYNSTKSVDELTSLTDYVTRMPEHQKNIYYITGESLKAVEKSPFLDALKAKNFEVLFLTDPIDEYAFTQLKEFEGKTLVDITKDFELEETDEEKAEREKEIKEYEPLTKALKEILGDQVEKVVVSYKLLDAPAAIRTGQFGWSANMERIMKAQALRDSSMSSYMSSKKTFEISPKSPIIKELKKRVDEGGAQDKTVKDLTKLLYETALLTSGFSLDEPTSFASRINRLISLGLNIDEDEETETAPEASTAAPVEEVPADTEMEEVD

[6] = test system: SH-SY5Y human neuroblastoma cell line; set-up: method as in Kasza et al., 2016; details: ref Kasza et al., 2016; cited from earlier work
[7] = biological target: T2, yeast Hsp90; test: ITC binding to yeast full-length Hsp90
[8] = test system: APPxPS1 transgenic mouse model of AD; set-up: method as in Kasza et al., 2016; details: ref Kasza et al., 2016, cited from earlier work
[9] = biological target: yeast Hsp90^546−709 (Saccharomyces cerevisiae, UniProt P02829); test: ITC binding to yeast Hsp90 546-709 (C-terminal domain)
Sequence of yeast Hsp90^546−709 (P02829 546-709): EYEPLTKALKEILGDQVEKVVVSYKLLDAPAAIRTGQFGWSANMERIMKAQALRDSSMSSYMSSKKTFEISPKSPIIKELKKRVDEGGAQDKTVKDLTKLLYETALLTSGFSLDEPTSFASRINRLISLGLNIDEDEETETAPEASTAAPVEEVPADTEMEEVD

[10] = biological target: yeast Hsp90^273−709 (Saccharomyces cerevisiae, UniProt P02829); test: ITC binding to yeast Hsp90 273-709 (middle and C-terminal domain); details: for ΔH / ΔS: ITC, Yeast 273–709
Sequence of yeast Hsp90^273−709 (P02829 273-709): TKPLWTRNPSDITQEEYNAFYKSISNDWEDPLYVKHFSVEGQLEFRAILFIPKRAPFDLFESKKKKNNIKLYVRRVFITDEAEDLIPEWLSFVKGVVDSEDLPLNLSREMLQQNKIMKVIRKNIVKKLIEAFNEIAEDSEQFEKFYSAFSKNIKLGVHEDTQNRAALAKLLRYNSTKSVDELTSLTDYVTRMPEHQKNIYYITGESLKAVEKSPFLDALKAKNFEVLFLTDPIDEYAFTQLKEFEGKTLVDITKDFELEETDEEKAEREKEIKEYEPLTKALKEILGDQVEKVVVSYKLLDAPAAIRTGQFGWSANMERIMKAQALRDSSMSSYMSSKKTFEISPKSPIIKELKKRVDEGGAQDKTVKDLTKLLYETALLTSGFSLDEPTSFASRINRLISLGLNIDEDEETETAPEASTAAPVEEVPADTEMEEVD

[11] = biological target: yeast Hsp90-P661R (Saccharomyces cerevisiae, UniProt P02829, P661R); test: ITC binding to yeast Hsp90 mutant P661R
[12] = biological target: T2, yeast Hsp90; test: Hsp90 ATPase assay
[13] = biological target: human Hsp90α (Homo sapiens, UniProt P07900); test: ITC binding to human full-length Hsp90α
[14] = biological target: Hsp90^1−560 (Saccharomyces cerevisiae, UniProt P02829); test: ITC binding to yeast Hsp90 1-560 (N and middle domain); details: Hsp90 1−560, N- and middle-domain of yeast Hsp90
[15] = biological target: yeast Hsp90-ADP complex (Saccharomyces cerevisiae, UniProt P02829); test: ITC binding to yeast Hsp90-ADP complex
Sequence of yeast Hsp90-ADP complex (P02829 whole entry, one chain of several): as the sequence (P02829 whole entry) above

[16] = test system: Hsp90; test: Refolding of denatured luciferase in rabbit reticulocyte lysate; format: biochemical
Procedure: QuantiLum Luciferase (Promega E170A) was diluted to 100 ug/mL in 25 mM Tricine pH 7.8, containing 10 mM MgCl2, 1 mM DTT, 0.1 mM EDTA, 10% glycerol, and 100 mg/mL BSA (sigma 05470) and denatured at 44°C for 30 min. […] Refolding of luciferase was determined by removing 2 μL aliquots of the rabbit reticulocyte mix at 0, 15, 30 45, 60, 90, and 120 min and adding this to 48 μL of Briglt-Glo^TM reconstituted reagent (Promega, E2610), which contains buffer, substrate and ATP required for luciferase activity, as instructed by the manufacturer. Luminescence was measured in a CLARIOstar^R microplate reader using half area 96 well flat bottom plates.

[17] = biological target: human Hsp90β (Homo sapiens, UniProt P08238); test: ITC binding to human full-length Hsp90β
Sequence of human Hsp90β (P08238 whole entry): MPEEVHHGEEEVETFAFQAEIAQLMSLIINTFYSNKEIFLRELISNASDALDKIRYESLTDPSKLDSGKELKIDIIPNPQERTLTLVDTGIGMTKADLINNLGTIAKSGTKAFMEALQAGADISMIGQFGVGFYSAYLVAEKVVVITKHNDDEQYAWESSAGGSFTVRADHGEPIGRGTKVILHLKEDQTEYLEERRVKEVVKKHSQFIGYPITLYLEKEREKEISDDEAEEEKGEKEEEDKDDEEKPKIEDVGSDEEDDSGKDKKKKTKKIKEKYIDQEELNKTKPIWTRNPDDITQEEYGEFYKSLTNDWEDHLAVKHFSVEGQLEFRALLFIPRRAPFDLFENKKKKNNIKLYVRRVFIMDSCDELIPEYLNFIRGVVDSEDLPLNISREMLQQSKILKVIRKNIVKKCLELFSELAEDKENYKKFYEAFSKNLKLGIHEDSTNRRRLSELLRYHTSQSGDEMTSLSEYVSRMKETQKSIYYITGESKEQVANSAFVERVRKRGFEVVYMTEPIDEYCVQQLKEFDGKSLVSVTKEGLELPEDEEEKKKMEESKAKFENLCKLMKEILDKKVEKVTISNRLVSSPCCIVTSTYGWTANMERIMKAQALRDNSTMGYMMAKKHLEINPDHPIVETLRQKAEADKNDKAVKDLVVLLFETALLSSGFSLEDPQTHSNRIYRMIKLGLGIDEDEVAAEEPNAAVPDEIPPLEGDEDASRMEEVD

[18] = biological target: Hsp90-AMPPNP-Sba1 complex (Saccharomyces cerevisiae, UniProt P02829); test: ITC binding to Hsp90-AMPPNP-Sba1 complex
Sequence of Hsp90-AMPPNP-Sba1 complex (P02829 whole entry): as the sequence (P02829 whole entry) above
Sequence of Hsp90-AMPPNP-Sba1 complex (P28707 whole entry partner): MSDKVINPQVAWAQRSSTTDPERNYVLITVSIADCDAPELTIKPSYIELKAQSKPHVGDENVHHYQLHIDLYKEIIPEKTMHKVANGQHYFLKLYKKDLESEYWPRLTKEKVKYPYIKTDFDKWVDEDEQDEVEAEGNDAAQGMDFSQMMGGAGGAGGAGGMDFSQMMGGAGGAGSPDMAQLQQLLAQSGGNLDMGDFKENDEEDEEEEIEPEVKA

[19] = biological target: T2, yeast Hsp90; set-up: pRSETA was used to express yeast full–length Hsp90; made in house; method as in Prodromou et al., 1999; details: Sti1 to yeast Hsp90 without LA1011; ref Prodromou et al., 1999; cited from earlier work
[20] = 2 μM yeast Hsp90, non-inhibited turnover 1.2 per min

Sequence of yeast Hsp90–AMPPNP complex (P02829 whole entry, the tested form may be a part, one chain of several): as the sequence (P02829 whole entry) above

Molecule: COC(=O)C1=C(CCN(C)C)N(C)C(CCN(C)C)=C(C(=O)OC)C1c1ccc(C(F)(F)F)cc1 [LA1011]
- Kd [1]: 66.2 ± 21.4 µM
- LA1011 required to achieve 88% occupancy ([1]; in the presence of ATP): 0.5 mM
- binding [2]: failed to bind
- binding [3]: did not interact
- binding [4]: failed to bind
- disruption of Hsp90's ability to protect citrate synthase from aggregation ([5]; 0.1–0.2 mM LA1011, 600 nM Hsp90, 45°C): around 50%
- fractional occupancy ([5]; calculated as [ligand]/[ligand]+Kd, Kd 13 μM, at 0.1–0.2 mM LA1011): 88–93%
- heat shock protein co-induction [6]: co-inducers of Hsp70 and Hsp27
- Kd [7]: 13.5 ± 0.9 µM
- N (stoichiometry) ([7]; ITC, Yeast Hsp90): 0.53
- ΔH ([7]; ITC, Yeast Hsp90): -4.863 ± 0.194 kcal/mol
- ΔS ([7]; ITC, Yeast Hsp90): 6.24 cal/mol/Deg
- LA1011 required to achieve 88% occupancy ([7]; in the absence of ATP): 100 µM
- neuroprotective effect ([8]; APPxPS1 transgenic mouse model of AD): could protect neurons in the hippocampus, could decrease Tau-accumulation and was able to preserve dendritic spines
- levels that had an effect in mouse models ([8]; mouse models): 5 to 10 µM
- Kd [9]: 60.6 ± 7.9 µM
- ΔH ([9]; ITC, Yeast 546–709): -2.603 ± 0.706 kcal/mol
- ΔS ([9]; ITC, Yeast 546–709): 10.7 cal/mol/Deg
- Kd [10]: 9.7 ± 0.7 µM
- ΔH [10]: -5.11 ± 0.187 kcal/mol
- ΔS [10]: 6.07 cal/mol/Deg
- Kd [11]: 80.6 ± 19 µM
- effect on ATPase activity of Hsp90 [12, 20]: activated the ATPase activity
- effect on ATPase activity of Hsp90 ([12]; 10 μM LA1011): marginal effects
- stimulation of the ATPase ([12]; 240 μM LA1011): 2 fold
- Kd [13]: 3.8 ± 0.7 µM
- ΔH ([13]; ITC, Hsp90α): -0.792 ± 0.0807 kcal/mol
- ΔS ([13]; ITC, Hsp90α): 22.2 cal/mol/Deg
- N (stoichiometry) ([13]; ITC, human Hsp90α): 0.35
- binding [14]: failed to bind
- Kd [15]: 66.2 ± 29.7 µM
- inhibition of luciferase refolding ([16]; 1 mM LA1011, rabbit reticulocyte lysate): around 50%
- refolding of luciferase ([16]; 5 mM LA1011, rabbit reticulocyte lysate): completely prevented refolding of luciferase
- Kd [17]: 9.7 ± 0.7 µM
- ΔH ([17]; ITC, Hsp90β): -0.6549 ± 0.0435 kcal/mol
- ΔS ([17]; ITC, Hsp90β): 20.8 cal/mol/Deg
- N (stoichiometry) ([17]; ITC, human Hsp90β): 0.27
- Kd [18]: 23.1 ± 1.9 µM

Molecule: COC(=O)C1=C(CCN(C)C)N(C)C(CCN(C)C)=C(C(=O)OC)C1c1cc(F)cc(F)c1 [LA1026]
- Kd [10]: 48.8 ± 4.7 µM
- ΔH [10]: -1.233 ± 0.21 kcal/mol
- ΔS [10]: 15.7 cal/mol/Deg
- effect on ATPase activity of Hsp90 [12, 20]: activated the ATPase activity

Molecule: Sti1: yeast co-chaperone of Hsp90
- Kd [19]: 0.33 ± 0.03 µM

Molecule: COC(=O)C1=C(C)N(C)C(CCN2CCOCC2)=C(C(=O)OC)C1c1ccc(C(F)(F)F)cc1 (stereo not drawn) [LA1014]
- Kd [10]: 20.2 ± 3 µM
- ΔH [10]: -0.8714 ± 0.145 kcal/mol
- ΔS [10]: 18.6 cal/mol/Deg
- effect on ATPase activity of Hsp90 [12, 20]: activated the ATPase activity

Molecule: COC1=C2C[C@@H](C)C[C@H](OC)[C@H](O)[C@@H](C)/C=C(\C)[C@H](OC(N)=O)[C@@H](OC)/C=C\C=C(/C)C(=O)NC(=CC1=O)C2=O [geldanamycin, reference compound]
- effect on ATPase activity of Hsp90 [12, 20]: inhibition of Hsp90 ATPase activity
